Source: ChEMBL document CHEMBL4616625, “The Medicinal Chemistry in the Era of Machines and Automation: Recent Advances in Continuous Flow Technology” (J Med Chem, 2020)

Tests used:
[1] = target: T1, Alpha-1B adrenergic receptor (Homo sapiens, UniProt P35368); assay: Inhibition of alpha1B adrenergic receptor (unknown origin)
T1 sequence (P35368 whole entry): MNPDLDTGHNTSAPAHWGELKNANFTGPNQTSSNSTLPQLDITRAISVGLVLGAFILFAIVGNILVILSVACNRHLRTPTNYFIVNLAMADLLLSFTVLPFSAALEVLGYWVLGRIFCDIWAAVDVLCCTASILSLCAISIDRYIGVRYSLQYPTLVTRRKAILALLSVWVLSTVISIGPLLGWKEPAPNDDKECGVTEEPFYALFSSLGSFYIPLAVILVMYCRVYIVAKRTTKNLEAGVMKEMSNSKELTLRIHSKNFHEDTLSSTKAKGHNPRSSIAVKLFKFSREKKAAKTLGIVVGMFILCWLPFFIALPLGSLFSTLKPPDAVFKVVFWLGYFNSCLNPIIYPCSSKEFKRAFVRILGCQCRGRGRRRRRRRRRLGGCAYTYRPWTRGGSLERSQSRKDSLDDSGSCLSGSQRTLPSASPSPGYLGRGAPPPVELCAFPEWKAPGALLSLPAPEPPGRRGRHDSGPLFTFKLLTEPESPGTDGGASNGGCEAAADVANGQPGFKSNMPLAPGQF

[2] = target: Albumin (Homo sapiens, UniProt P02768); assay: Binding affinity to albumin (unknown origin); assay type: ADME
Chain of Albumin (P02768 whole entry): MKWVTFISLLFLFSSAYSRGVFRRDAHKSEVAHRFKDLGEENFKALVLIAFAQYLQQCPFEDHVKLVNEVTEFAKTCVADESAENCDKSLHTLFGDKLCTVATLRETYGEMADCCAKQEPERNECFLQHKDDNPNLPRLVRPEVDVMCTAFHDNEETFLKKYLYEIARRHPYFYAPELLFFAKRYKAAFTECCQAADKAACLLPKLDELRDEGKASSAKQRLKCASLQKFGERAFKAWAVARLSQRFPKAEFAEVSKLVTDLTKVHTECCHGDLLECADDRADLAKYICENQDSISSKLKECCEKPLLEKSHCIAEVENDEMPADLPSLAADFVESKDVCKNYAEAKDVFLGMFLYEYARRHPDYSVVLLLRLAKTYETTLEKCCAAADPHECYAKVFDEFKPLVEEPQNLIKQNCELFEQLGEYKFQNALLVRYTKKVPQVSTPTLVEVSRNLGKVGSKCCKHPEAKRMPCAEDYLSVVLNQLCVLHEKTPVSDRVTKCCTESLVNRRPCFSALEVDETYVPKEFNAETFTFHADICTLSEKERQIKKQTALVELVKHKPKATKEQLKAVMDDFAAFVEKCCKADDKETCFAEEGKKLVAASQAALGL

Work on `COc1ccc(-c2nc3ccccn3c2NCCN2CCOCC2)c(OC)c1` yielded a Ki [1] of 2 µM.

For `CCCN(CCC)C(=O)Cc1c(-c2ccc(Cl)cc2)nc2ccc(Cl)cn12` [ALPIDEM], the Kd [2] was 2 µM.

Work on `Cc1ccc(-c2nc3ccc(C)cn3c2CC(=O)N(C)C)cc1` [ZOLPIDEM] yielded a Kd [2] of 63 µM.
